Experimental data taken from ChEMBL document CHEMBL1201862, “PubChem BioAssay data set” (2004).
Values belong to the compound of their own block, whether it stands above or below them. Active and inactive are the calls of the source.

What was measured:
Assay type in all cases: functional
[1] = molecular target: T1, High affinity choline transporter 1 (Homo sapiens, UniProt Q9GZV3); test: CHT inhibitors, dose response, cell-based, 5-point CRC, membrane potential dye (AID 504840)
T1 sequence (Q9GZV3 whole entry): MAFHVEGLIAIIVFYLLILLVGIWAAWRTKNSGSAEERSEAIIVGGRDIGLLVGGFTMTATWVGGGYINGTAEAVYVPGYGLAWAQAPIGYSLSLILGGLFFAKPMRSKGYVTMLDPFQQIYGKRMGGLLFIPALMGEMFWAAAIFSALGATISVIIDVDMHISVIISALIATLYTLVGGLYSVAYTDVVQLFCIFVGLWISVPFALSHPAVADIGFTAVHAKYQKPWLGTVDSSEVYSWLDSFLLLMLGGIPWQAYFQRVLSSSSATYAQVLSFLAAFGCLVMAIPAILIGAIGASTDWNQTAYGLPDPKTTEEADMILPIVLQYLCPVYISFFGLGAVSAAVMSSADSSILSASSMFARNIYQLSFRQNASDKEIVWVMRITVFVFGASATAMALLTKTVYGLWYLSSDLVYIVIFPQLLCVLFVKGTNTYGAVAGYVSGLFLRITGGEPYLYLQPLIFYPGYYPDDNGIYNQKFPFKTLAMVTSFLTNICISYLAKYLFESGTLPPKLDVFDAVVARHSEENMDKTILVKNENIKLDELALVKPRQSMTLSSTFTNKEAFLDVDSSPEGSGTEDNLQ

[2] = molecular target: T1, High affinity choline transporter 1; test: CHT inhibitors, dose response, cell-based, 10-point CRC, membrane potential dye (AID 588401);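 note: membrane potential dye fluorescence of choline-evoked depolarization via CHT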
[3] = SAR analysis of small molecule activators of Apaf-1 using a LZ-Caspase-9/Caspase-3 Fluorescent Selectivity assay - Set 2.; conditions: read-out: EC50_Mean
[4] = molecular target: T2, Apoptotic protease-activating factor 1 (Homo sapiens, UniProt O14727); test: SAR analysis of small molecule Activators of Apaf-1 in a Fluorescent assay - set 2.; conditions: read-out: EC50_Mean
T2 sequence (O14727 whole entry): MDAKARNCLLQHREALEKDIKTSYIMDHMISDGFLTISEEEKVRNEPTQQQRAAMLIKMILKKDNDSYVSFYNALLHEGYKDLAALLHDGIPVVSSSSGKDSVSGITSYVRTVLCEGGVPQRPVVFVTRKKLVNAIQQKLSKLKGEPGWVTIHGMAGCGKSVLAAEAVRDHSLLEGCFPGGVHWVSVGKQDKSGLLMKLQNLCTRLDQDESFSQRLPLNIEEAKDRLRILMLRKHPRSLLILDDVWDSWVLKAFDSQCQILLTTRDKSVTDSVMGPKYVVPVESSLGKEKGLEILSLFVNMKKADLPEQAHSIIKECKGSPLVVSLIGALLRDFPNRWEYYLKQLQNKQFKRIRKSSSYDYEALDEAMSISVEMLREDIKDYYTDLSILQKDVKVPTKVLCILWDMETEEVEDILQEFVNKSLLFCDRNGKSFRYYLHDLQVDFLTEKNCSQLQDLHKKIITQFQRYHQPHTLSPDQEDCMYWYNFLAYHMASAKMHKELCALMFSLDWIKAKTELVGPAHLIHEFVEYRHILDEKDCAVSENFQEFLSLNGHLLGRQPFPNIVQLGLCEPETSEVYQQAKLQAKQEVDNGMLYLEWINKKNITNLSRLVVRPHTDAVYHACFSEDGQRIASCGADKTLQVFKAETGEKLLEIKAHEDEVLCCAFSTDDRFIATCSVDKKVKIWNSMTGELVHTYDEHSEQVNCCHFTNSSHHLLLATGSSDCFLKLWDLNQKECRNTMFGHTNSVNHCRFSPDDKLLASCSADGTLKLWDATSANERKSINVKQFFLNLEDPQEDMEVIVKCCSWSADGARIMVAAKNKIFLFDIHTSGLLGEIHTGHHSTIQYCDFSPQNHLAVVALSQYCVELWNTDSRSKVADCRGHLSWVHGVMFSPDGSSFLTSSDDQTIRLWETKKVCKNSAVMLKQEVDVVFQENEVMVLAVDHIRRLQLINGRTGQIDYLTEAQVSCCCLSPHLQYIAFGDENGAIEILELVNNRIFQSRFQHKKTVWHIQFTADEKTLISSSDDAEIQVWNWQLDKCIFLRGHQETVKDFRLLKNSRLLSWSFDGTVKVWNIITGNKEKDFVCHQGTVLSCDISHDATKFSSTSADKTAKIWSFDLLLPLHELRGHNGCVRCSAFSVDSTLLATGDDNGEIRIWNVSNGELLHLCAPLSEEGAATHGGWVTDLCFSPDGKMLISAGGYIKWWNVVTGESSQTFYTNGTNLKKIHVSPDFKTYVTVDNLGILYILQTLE

[5] = molecular target: T3, DNA dC->dU-editing enzyme APOBEC-3G (Homo sapiens, UniProt Q9HC16); test: SAR analysis of small molecule inhibitors of APOBEC3G DNA Deaminase via a fluorescence-based single-stranded DNA deaminase assay - Set 2.; conditions: read-out: IC50_Mean
[6] = molecular target: T3, DNA dC->dU-editing enzyme APOBEC-3G; test: APOBEC3G deaminase inhibitors, SAR follow-up, biochemical, fluorescence, single-stranded DNA substrate (AID 602136); conditions: read-out: IC50_Mean
[7] = molecular target: T4, DNA dC->dU-editing enzyme APOBEC-3A (Homo sapiens, UniProt P31941); test: SAR analysis of small molecule inhibitors of APOBEC3A DNA Deaminase via a fluorescence-based single-stranded DNA deaminase assay.; conditions: read-out: IC50_Mean
[8] = molecular target: T3, DNA dC->dU-editing enzyme APOBEC-3G
[9] = molecular target: T4, DNA dC->dU-editing enzyme APOBEC-3A; test: Dose Response confirmation of small molecule APOBEC3A DNA Deaminase Inhibitors via a fluorescence-based single-stranded DNA deaminase assay. [Related pubchem assays (depositor defined):AID493011, AID493024]
[10] = molecular target: T4, DNA dC->dU-editing enzyme APOBEC-3A; test: SAR analysis of small molecule inhibitors of APOBEC3A DNA Deaminase via a fluorescence-based single-stranded DNA deaminase assay - Set 2.; conditions: read-out: IC50_Mean
[11] = molecular target: T5, Neuropeptides B/W receptor type 1 (Homo sapiens, UniProt P48145); test: GPR7 antagonist potency, late-stage follow-up, cell-based, fluorescence, dose response, set 5 (AID 588566)
T5 sequence (P48145 whole entry): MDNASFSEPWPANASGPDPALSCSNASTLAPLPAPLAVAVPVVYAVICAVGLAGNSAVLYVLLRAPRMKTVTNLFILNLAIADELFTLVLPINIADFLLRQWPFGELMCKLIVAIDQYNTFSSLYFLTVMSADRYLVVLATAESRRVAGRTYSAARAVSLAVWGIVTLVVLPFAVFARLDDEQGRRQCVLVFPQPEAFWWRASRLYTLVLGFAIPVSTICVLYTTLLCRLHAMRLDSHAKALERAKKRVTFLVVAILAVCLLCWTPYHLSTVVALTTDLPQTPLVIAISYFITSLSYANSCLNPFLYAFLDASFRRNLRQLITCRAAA

[12] = molecular target: Melanin-concentrating hormone receptor 1 (Homo sapiens, UniProt Q99705); test: Late-stage fluorescence-based counterscreen for antagonists of the G-protein coupled receptor 7 (GPR7): cell-based dose response assay to identify antagonists of the melanin-concentrating hormone receptor 1 (MCHR1) Set 5.
Melanin-concentrating hormone receptor 1, sequence (Q99705 whole entry): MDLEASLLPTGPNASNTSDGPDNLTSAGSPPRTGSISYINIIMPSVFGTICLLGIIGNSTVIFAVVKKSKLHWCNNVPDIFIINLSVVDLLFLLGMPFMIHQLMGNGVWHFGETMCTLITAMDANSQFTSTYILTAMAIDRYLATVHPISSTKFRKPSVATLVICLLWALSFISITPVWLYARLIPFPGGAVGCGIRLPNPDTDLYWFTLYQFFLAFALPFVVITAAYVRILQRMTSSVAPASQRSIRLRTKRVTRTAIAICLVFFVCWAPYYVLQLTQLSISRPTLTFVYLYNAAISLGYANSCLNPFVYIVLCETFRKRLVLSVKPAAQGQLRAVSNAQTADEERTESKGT

T4 sequence (P31941 whole entry): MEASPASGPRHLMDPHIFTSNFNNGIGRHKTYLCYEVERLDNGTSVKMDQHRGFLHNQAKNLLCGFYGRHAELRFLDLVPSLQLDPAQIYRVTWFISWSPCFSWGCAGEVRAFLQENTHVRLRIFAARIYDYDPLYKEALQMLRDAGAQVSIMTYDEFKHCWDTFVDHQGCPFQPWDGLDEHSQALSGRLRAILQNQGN
T3 sequence (Q9HC16 whole entry): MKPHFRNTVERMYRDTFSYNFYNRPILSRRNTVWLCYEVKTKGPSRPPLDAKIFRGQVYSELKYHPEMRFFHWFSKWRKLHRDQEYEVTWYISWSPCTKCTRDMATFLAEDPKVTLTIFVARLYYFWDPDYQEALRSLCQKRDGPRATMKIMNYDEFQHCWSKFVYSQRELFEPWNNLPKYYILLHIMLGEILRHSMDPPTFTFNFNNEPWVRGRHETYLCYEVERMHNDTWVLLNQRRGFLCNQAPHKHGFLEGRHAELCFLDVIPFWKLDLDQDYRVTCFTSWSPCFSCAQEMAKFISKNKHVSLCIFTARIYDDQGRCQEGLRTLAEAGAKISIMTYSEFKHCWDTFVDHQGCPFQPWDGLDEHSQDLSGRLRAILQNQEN

IC50 [1]: 1.77 µM (active) | IC50 [2]: 0.447 µM (active)
SMILES: CCOC(=O)c1cc(C(=O)NC(C)c2ccccc2)c(C)nc1O (configuration not stated)

EC50 [3]: > 100 µM (inactive) | EC50 [4]: 83.2 µM (active)
SMILES: CC(Cn1cnc2ccccc21)C(=O)O (configuration not stated)

SMILES: C[n+]1cccc(C(=O)Nc2ccccc2)c1
IC50 [5]: 1.1 µM (active) | IC50 [6]: 5.96 µM (active) | IC50 [7]: 12.8 µM (inactive) | IC50 [8]: 6.95 µM (active) | IC50 [9]: 2.75 µM (active) | IC50 [10]: 28.6 µM (inactive)

IC50 [11]: 0.379 µM (active) | IC50 [12]: 18.8 µM (inactive)
SMILES: Cc1cccc(C(C#N)c2c(Cl)cnn(Cc3cccc4ccccc34)c2=O)c1 (configuration not stated)
